According to US5494917A, “Cognition enhancing quinuclidine compound” (Kanegafuchi Kagaku Kogyo Kabushiki Kaisha, priority 1993, dated 1996):

What was measured:
[1] = system: experimental amnesia in rat induced by lesioning basal forebrain (BF); assay: Anti-amnesic effect: step-through passive avoidance, amnesia induced by BF lesion (ibotenic acid); assay type: in vivo, Wistar male rat; conditions: for minimal effective dose: Rattus norvegicus, oral, BF lesion amnesia, read-out: most potent minimal effective dose; for Latency: retention after 24 hours, max 300 s
Method: (§1) As experimental animals, Wistar male rats and ddY male mice were used for the experiments after they were housed for a week under every 12 hours'dark-light cycle at room temperature of 24° to 26° C.
The effect on experimental amnesia in rat induced by lesioning basal forebrain (BF) was evaluated.
The experiment was carried out using an experimental apparatus of step-through type passive avoidance task for rat (made by Ohara-ika-sangyoK.K. ) comprising two compartments of dark and light. That is, the dark compartment (height: 200 cm, width: 150 cm, length: 200 cm) was a black plastic box and was floored with stainless grids for giving an electrical shock so that an electricity might be turned on a determined time after interception of a photobeam placed in the dark compartment. The light compartment made of transparent plastic (height: 200 cm, width: 250 cm, length: 200 cm) was provided adjacent to the dark compartment and was lightened from a location spaced 25 cm above by a 60 W electric lamp. Between the two compartments, there was provided an entrance with a guillotine door which could be opened and closed, and when the guillotine door was opened, a rat could freely move from one compartment to another.
Amnesia was induced by BF lesion. Among presently known methods for inducing amnesia, this method is considered to provide an animal model having the most similar pathology to Alzheimer's disease. The BF lesion was carried out by fixing an animal to a stereotaxic apparatus under nembutal anesthesia, inserting a stainless pipe into the BF area according to the brain map of Koenig, and injecting ibotenic acid bilaterally from the stainless pipe. In the sham-operation group, although craniotomy was carried out, ibotenic acid was not injected and therefore BF was not lesioned. The animals were used for experiments after recovery period of about 4 weeks.
Anti-amnesic effect was evaluated according to the following procedure.
A Wistar male rat (9 week-old) previously conditioned in the dark-light box was put in the light compartment and the guillotine door was opened. When the rat moved into the dark compartment, 150 V electrical shock was given for 3 seconds from the floor grid (aquisition trial). After 24 hours, retention trial was carried out in the same manner as in the aquisition trial, and latency, a period until the animal put in the light compartment entered the dark compartment, was measured maximally 300 seconds.
Every test compound was suspended in a distilled water containing 2.5% of gum arabic and 0.2% of Tween 80. […] The doses were 0.01 to 10 mg/kg.

[2] = target: T1, M1 receptor (Rattus norvegicus, UniProt P08482); assay: M1 receptor binding ((3H)pirenzepine, cerebral cortex); design: species or system Wistar male rat; conditions: for nH (pseudo Hill coefficient) / IC50 / Ki: (3H)pirenzepine, rat cerebral cortex; for IC50: 25° C., 60 minutes, pH 7.4; for Ki: calculated from IC50; for M1 receptor binding ability / selectivity (in words): M1 vs M2; for M1 receptor binding ability compared with muscarinic agonists (in words): vs AF102B and McN-A-343
T1 construct: from tissue; host or cells: Wistar male rat cerebral cortex, washed homogenate
T1 sequence (P08482 1-460): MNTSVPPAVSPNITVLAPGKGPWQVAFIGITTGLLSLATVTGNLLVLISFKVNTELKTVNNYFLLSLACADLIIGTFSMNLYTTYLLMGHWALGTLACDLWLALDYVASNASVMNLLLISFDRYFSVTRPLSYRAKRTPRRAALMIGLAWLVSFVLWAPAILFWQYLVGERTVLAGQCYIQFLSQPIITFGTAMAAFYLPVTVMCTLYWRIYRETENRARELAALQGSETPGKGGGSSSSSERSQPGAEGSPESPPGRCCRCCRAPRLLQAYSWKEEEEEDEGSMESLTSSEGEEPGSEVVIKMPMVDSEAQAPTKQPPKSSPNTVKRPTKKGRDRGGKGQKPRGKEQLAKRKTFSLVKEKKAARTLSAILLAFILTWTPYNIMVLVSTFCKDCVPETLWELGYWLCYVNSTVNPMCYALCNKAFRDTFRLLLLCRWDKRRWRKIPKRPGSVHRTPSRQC
Method: The binding ability of the test compounds to M1 receptor was determined according to a modification of the method of Watson et al. (Life Sci., 32, 3001 (1983)). Concretely, 100 volume (W/V) of 10 mM Na--K phosphate buffer (pH 7.4) was added to a cerebral cortex of a Wistar male rat, and after the homogenization with polytron, the homogenate was centrifuged and washed twice. To 1 ml of the test liquid which was prepared by re-suspending the resulting precipitate, were added 20 μl of (^3 H)pirenzepine, M1 receptor specific antagonist, and 20 μl of a test medicinal compound. After the incubation at 25° C. for 60 minutes, the mixture was filtrated and washed with a glass filter, and an amount of (^3 H)pirenzepine bound to the receptor was counted by means of a liquid scintillation counter.
(§2) Ki is an affinity of a medicinal compound for a receptor, which is calculated from the following formula: [formula]
(§3) In addition, nH is pseudo Hill coefficient which represents the number of a binding part of a receptor. When the values of IC50 and Ki are smaller, a binding ability of a medicinal compound to a receptor is stronger.

[3] = target: T2, M2 receptor (Rattus norvegicus, UniProt P10980); assay: M2 receptor binding ((3H)N-methyl scopolamine, heart)
T2 construct: from tissue; host or cells: rat heart, 40,000 g membrane fraction
T2 sequence (P10980 1-466): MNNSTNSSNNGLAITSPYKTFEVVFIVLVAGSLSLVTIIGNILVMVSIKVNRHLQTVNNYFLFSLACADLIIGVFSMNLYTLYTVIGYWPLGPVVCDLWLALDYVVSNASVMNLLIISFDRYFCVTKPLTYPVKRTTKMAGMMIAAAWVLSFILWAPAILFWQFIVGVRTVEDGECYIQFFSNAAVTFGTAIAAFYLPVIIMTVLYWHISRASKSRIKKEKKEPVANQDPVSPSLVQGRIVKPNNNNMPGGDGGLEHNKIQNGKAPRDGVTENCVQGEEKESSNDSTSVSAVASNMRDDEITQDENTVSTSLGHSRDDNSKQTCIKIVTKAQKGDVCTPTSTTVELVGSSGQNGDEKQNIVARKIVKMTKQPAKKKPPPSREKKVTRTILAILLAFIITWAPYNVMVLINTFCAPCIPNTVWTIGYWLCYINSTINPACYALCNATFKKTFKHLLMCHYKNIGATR
Method: The binding ability to M2 receptor was determined according to a modification of the method of Buckley et al. (Mol. Pharmacol., 35, 469 (1989)). Concretely, 10 volume (W/V) of 50 mM Tris-HCl buffer (pH 7.4) was added to rat's heart, and after the homogenization with polytron, the homogenate was centrifuged and washed twice at 500 g for 10 minutes. The resulting supernatant was centrifuged four times at 40,000 g for 20 minutes. To 450 μl of the test liquid which was prepared by re-suspending the resulting precipitate, were added 200 μl of (^3 H)N-methyl scopolamine, a muscarinic specific antagonist, and 100 μl of a test medicinal compound. After the incubation at 22° C. for 90 minutes, the amount of (^3 H)N-methyl scopolamine found was determined.
as §2, §3

[4] = Acute toxicity test, oral; assay type: in vivo, ddY male mice; conditions: mouse, in vivo; oral, 2 weeks observation; estimated
Method: as §1
(§4) With respect to Compounds 1a and 1b shown in Table 1 as test compounds, the acute toxicity was examined using ddY mice according to the following method.
(§5) In each group, six male ddY mice weighing 27 to 30 g were employed. Compounds 1a and 1b suspended in an aqueous solution of 0.5% sodium carboxymethylcellulose were orally administered in a dose of 0.1 ml/10 g body weight. […] The LD50 (mg/kg) values were estimated from the ratio of the number of dead mice to the number of mice used.

[5] = system: ddY mice; assay: Acute toxicity test, oral; assay type: in vivo, ddY male mice; conditions: 100 mg/kg oral, 2 weeks observation, 0.5% sodium carboxymethylcellulose
Method: as §1, §4, §5

[6] = (3H)N-methyl scopolamine, rat heart, 22° C., 90 minutes, pH 7.4
[7] = 0.1 mg/kg p.o., 1 hour before aquisition trial
[8] = 1.0 mg/kg p.o., 1 hour before aquisition trial

| Structure (SMILES) | minimal effective dose [1] | nH (pseudo Hill coefficient) [2] | IC50 [2] | Ki [2] | IC50 [3, 6] | Latency [1, 7] | Latency [1, 8] | LD50 at 336 h [4] | dead mice [5] | M1 receptor binding ability / selectivity (in words) [2] | M1 receptor binding ability compared with muscarinic agonists (in words) [2] | Latency ([1]; 0.01 mg/kg p.o., 1 hour before aquisition trial) | Latency ([1]; 10 mg/kg p.o., 1 hour before aquisition trial) | nH (pseudo Hill coefficient) ([3]; (3H)N-methyl scopolamine, rat heart) | Ki ([3]; (3H)N-methyl scopolamine, rat heart, calculated from IC50) | IC50 ([3]; M2 receptor binding) | M2 receptor binding ability weaker than M1 receptor binding ability ([3]; M2 vs M1) | Latency ([1]; 1.0 mg/kg p.o., 30 minutes before aquisition trial) | Latency ([1]; 5.0 mg/kg p.o., 30 minutes before aquisition trial) |
| --- | --- | --- | --- | --- | --- | --- | --- | --- | --- | --- | --- | --- | --- | --- | --- | --- | --- | --- | --- |
| CC1OC2(CS1)CN1CCC2CC1 (stereo not drawn) [AF102B, cis-2-methylspiro(1,3-oxathiolane-5,3') quinuclidine, reference compound] | 1 mg/kg | 0.8 ± 0.01 | 729 ± 116 nM | 509 ± 80 nM | > 10000 nM |  |  |  |  |  |  |  |  |  |  |  |  |  |  |
| C(=C1/CN2CCC1CC2)/c1cccc(Oc2ccccc2)c1 [Compound 1a] | 1 mg/kg | 0.9 ± 0.06 | 221 ± 32 nM | 152 ± 22 nM | > 10000 nM | 38 s | 156 s | ≥ 100 mg/kg | no dead mice | strong and specific M1 receptor binding ability | stronger binding ability to M1 than muscarinic agonists, AF102B (in course of clinical testing) and McN-A-343 |  |  |  |  |  |  |  |  |
| C(=C1\CN2CCC1CC2)/c1cccc(Oc2ccccc2)c1 [Compound 1b] | 0.1 mg/kg | 0.8 ± 0.07 | 23 ± 3 nM | 16 ± 2 nM | 4400 ± 100 nM | 182 s | 139 s | ≥ 100 mg/kg | no dead mice | strong and specific M1 receptor binding ability | stronger binding ability to M1 than muscarinic agonists, AF102B (in course of clinical testing) and McN-A-343 | 76 s | 99 s | 1.0 ± 0.02 | 1700 ± 40 nM | ≤ 10000 nM | about 190 times |  |  |
| C[N+](C)(C)CC#CCOC(=O)Nc1cccc(Cl)c1 [McN-A-343, 4[[[3-chlorophenyl)amino]carbonyl]oxy]-N, N, N-trimethyl-2-butyn-1-aminium chloride, reference compound] |  | 0.9 ± 0.05 | 842 ± 88 nM | 581 ± 61 nM | > 10000 nM |  |  |  |  |  |  |  |  |  |  |  |  |  |  |
| Nc1c2c(nc3ccccc13)CCCC2 [Tacrine, tetrahydroaminoacridine, reference compound] |  |  |  |  |  |  |  |  |  |  |  |  |  |  |  |  |  | 79 s | 188 s |
